Test: cn = amount concentration of the nth substance listed, in mol/dm3
Conditions: 101.3 kPa, Liquid; for viscosity: Falling or rolling sphere viscometry; for mass density: Vibrating tube method

O=C([O-])[C@@H]1CCCN1.[K+] [potassium L-prolinate] + O
Conditions	mass density [kg/m3]	viscosity [mPa·s]
298.15 K, c1 = 0.5001	1026.6	1.105
298.15 K, c1 = 1	1054.7	1.38
298.15 K, c1 = 1.5	1088	1.861
298.15 K, c1 = 2	1111.4	2.293
298.15 K, c1 = 2.5	1145.8	3.181
298.15 K, c1 = 3	1166.9	4.054
303.15 K, c1 = 0.5001	1025.2	0.9857
303.15 K, c1 = 1	1053	1.232
303.15 K, c1 = 1.5	1086.4	1.642
303.15 K, c1 = 2	1109.2	2.028
303.15 K, c1 = 2.5	1143.2	2.755
303.15 K, c1 = 3	1164.1	3.491
308.15 K, c1 = 0.5001	1023.5	0.8913
308.15 K, c1 = 1	1051	1.103
308.15 K, c1 = 1.5	1084.5	1.465
308.15 K, c1 = 2	1107	1.794
308.15 K, c1 = 2.5	1140.6	2.409
308.15 K, c1 = 3	1161.3	3.038
313.15 K, c1 = 0.5001	1021.6	0.8086
313.15 K, c1 = 1	1049	0.9949
313.15 K, c1 = 1.5	1082.2	1.31
313.15 K, c1 = 2	1104.7	1.601
313.15 K, c1 = 2.5	1137.9	2.136
313.15 K, c1 = 3	1158.4	2.662
318.15 K, c1 = 0.5001	1019.6	0.7351
318.15 K, c1 = 1	1046.8	0.9035
318.15 K, c1 = 1.5	1081.2	1.2
318.15 K, c1 = 2	1102.5	1.439
318.15 K, c1 = 2.5	1135.1	1.903
318.15 K, c1 = 3	1155.5	2.354
323.15 K, c1 = 0.5001	1017.6	0.6741
323.15 K, c1 = 1	1044.5	0.8251
323.15 K, c1 = 1.5	1078.8	1.085
323.15 K, c1 = 2	1100.4	1.296
323.15 K, c1 = 2.5	1132.2	1.707
323.15 K, c1 = 3	1152.5	2.102
328.15 K, c1 = 0.5001	1015.2	0.6219
328.15 K, c1 = 1	1042.2	0.7569
328.15 K, c1 = 1.5	1076.6	0.9922
328.15 K, c1 = 2	1098.5	1.196
328.15 K, c1 = 2.5	1129.2	1.541
328.15 K, c1 = 3	1149.4	1.887
333.15 K, c1 = 0.5001	1012.8	0.5764
333.15 K, c1 = 1	1039.9	0.7002
333.15 K, c1 = 1.5	1074.7	0.9175
333.15 K, c1 = 2	1095.8	1.093
333.15 K, c1 = 2.5	1126.2	1.4
333.15 K, c1 = 3	1146.3	1.704
338.15 K, c1 = 0.5001	1010.4	0.5373
338.15 K, c1 = 1	1037.4	0.6493
338.15 K, c1 = 1.5	1073.7	0.8552
338.15 K, c1 = 2	1093.6	1.009
338.15 K, c1 = 2.5	1123	1.278
338.15 K, c1 = 3	1143.1	1.549
343.15 K, c1 = 0.5001	1008	0.5039
343.15 K, c1 = 1	1035.5	0.608
343.15 K, c1 = 1.5	1071.9	0.7966
343.15 K, c1 = 2	1094.3	0.9587
343.15 K, c1 = 2.5	1119.9	1.173
343.15 K, c1 = 3	1139.8	1.414
348.15 K, c1 = 0.5001	1005.6	0.4733
348.15 K, c1 = 1	1035.7	0.5792
348.15 K, c1 = 1.5	1070.5	0.7486
348.15 K, c1 = 2	1092.4	0.8972
348.15 K, c1 = 2.5	1116.6	1.082
348.15 K, c1 = 3	1136.5	1.299
